Data taken from US20150209428A1, “PHARMACEUTICAL COMPOSITIONS FOR TOPICAL DELIVERY OF PHOTOSENSITIZERS AND USES THEREOF” (DERMIRA, INC., priority 2012, published 2015).

Key:
[1] = Apparent solubility of lemuteporfin in various solvents (HPLC); assay type: physicochemical
Source text: The solubility of lemuteporfin in various solvent compositions is shown in the last column of Table 3. All values were obtained analytically by HPLC analysis.
Solubility results for lemuteporfin indicated maximum solubility in solvent-based formulations containing primarily benzyl alcohol. The amount of lemuteporfin that can be solubilized in benzyl alcohol following heating is approximately 2.5% w/w. The addition of other solvents reduces solubility by approximately the amount of the new solvent introduced. Diethylene glycol monoethyl ether (DGME) is about 20% as efficient at dissolving lemuteporfin as benzyl alcohol.

[2] = Solubility of lemuteporfin in the LTS formulation (stirred, sampled, filtered); assay type: physicochemical; settings: for Lemuteporfin content (% w/w), solubility in the formulation of Table 5: filtered
Procedure: The solution was stirred and samples were removed at various time points, and then filtered to determine the amount of undissolved lemuteporfin. The amount of lemuteporfin that dissolved was approximately 0.048%.
Studies were conducted to determine the effect of certain of the LTS excipients on the solubility of lemuteporfin.

With lemuteporfin the “efficiency of DGME at dissolving lemuteporfin relative to benzyl alcohol” value ([1]; DGME versus benzyl alcohol) was “about 20%”, the “amount of lemuteporfin that can be solubilized in benzyl alcohol” value ([1]; benzyl alcohol, following heating) was “approximately 2.5 % w/w” and the “Apparent Solubility, % w/w Lemuteporfin” value ([1]; solvent % w/w: Benzyl Alcohol 30, Ethanol (190) 70) was 0.455 % w/w. For the same substance, the “Apparent Solubility, % w/w Lemuteporfin” value ([1]; solvent % w/w: Benzyl Alcohol 30, Oleyl Alcohol 70) was 0.166 % w/w, the “Apparent Solubility, % w/w Lemuteporfin” value ([1]; solvent % w/w: Benzyl Alcohol 40, Isopropyl Myristate 60) was 0.090 % w/w and the “Apparent Solubility, % w/w Lemuteporfin” value ([1]; solvent % w/w: Benzyl Alcohol 50, Ethanol (190) 50) was 0.453 % w/w. The “Apparent Solubility, % w/w Lemuteporfin” value ([1]; solvent % w/w: Benzyl Alcohol 50, Oleic Acid 50) was 0.409 % w/w, the “Apparent Solubility, % w/w Lemuteporfin” value ([1]; solvent % w/w: Benzyl Alcohol 50, Oleyl Alcohol 50) was 0.228 % w/w and the “Apparent Solubility, % w/w Lemuteporfin” value ([1]; solvent % w/w: Benzyl Alcohol 50, Propylene Glycol 50) was 0.494 % w/w. The “Apparent Solubility, % w/w Lemuteporfin” value ([1]; solvent % w/w: Benzyl Alcohol 90, Isopropyl Myristate 10) was 2.30 % w/w, the “Apparent Solubility, % w/w Lemuteporfin” value ([1]; solvent % w/w: Benzyl Alcohol 90, Oleic Acid 10) was 2.33 % w/w and the “Apparent Solubility, % w/w Lemuteporfin” value ([1]; solvent % w/w: Benzyl Alcohol 90, Oleyl Alcohol 5, Oleic Acid 5) was 2.22 % w/w. For the same substance, the “Apparent Solubility, % w/w Lemuteporfin” value ([1]; solvent % w/w: Benzyl Alcohol 90, Oleyl Alcohol 10) was 2.24 % w/w, the “Apparent Solubility, % w/w Lemuteporfin” value ([1]; solvent % w/w: Benzyl Alcohol 100) was 2.55 % w/w and the “Apparent Solubility, % w/w Lemuteporfin” value ([1]; solvent % w/w: DGME 45, Benzyl Alcohol 45, Oleyl Alcohol 5, Oleic Acid 5) was 1.373 % w/w. For the same substance, the “Apparent Solubility, % w/w Lemuteporfin” value ([1]; solvent % w/w: DGME 50, Benzyl Alcohol 15, Oleic Acid 35) was 0.230 % w/w, the “Apparent Solubility, % w/w Lemuteporfin” value ([1]; solvent % w/w: DGME 50, Benzyl Alcohol 15, Oleyl Alcohol 35) was 0.200 % w/w and the “Apparent Solubility, % w/w Lemuteporfin” value ([1]; solvent % w/w: DGME 50, Benzyl Alcohol 50) was 1.57 % w/w. For the same substance, the “Apparent Solubility, % w/w Lemuteporfin” value ([1]; solvent % w/w: DGME 52, Benzyl Alcohol 16, Oleyl Alcohol 16, Oleic Acid 16) was 0.210 % w/w, the “Apparent Solubility, % w/w Lemuteporfin” value ([1]; solvent % w/w: DGME 65, Oleyl Alcohol 17.5, Oleic Acid 17.5) was 0.271 % w/w and the “Apparent Solubility, % w/w Lemuteporfin” value ([1]; solvent % w/w: DGME 65, Oleyl Alcohol 35) was 0.430 % w/w. For the same substance, the “Apparent Solubility, % w/w Lemuteporfin” value ([1]; solvent % w/w: DGME 90, Isopropyl Myristate 10) was 0.430 % w/w, the “Apparent Solubility, % w/w Lemuteporfin” value ([1]; solvent % w/w: DGME 90, Oleyl Alcohol 5, Oleic Acid 5) was 0.420 % w/w and the “Apparent Solubility, % w/w Lemuteporfin” value ([1]; solvent % w/w: DGME 90, Oleyl Alcohol 10) was 0.420 % w/w. For the same substance, the “solubility of lemuteporfin in LTS solution system” value (shortened to “solubility of lemuteporfin”) ([2]; isopropyl alcohol removed (data not shown)) was 0.07 % w/w, the “amount of lemuteporfin that dissolved in the Table 5 components” value ([2]; room temperature) was “approximately 0.048%” and the “Lemuteporfin content (% w/w), solubility in the formulation of Table 5” value (from here on “Lemuteporfin content (% w/w), solubility”) ([2]; room temperature, time point 0.17 hours) was 0.0241 % w/w. For the same substance, the “Lemuteporfin content (% w/w), solubility” value ([2]; room temperature, time point 2.47 hours) was 0.0482 % w/w, the “Lemuteporfin content (% w/w), solubility” value ([2]; room temperature, time point 4.37 hours) was 0.0453 % w/w and the “Lemuteporfin content (% w/w), solubility” value ([2]; room temperature, time point 6.37 hours) was 0.0463 % w/w. For the same substance, the “Lemuteporfin content (% w/w), solubility” value ([2]; room temperature, time point 23.5 hours) was 0.0370 % w/w, the “solubility of lemuteporfin” value ([2]; with isopropyl alcohol (data not shown)) was “approximately 0.03 % w/w” and the “solubility of lemuteporfin” value ([2]; with polysorbate 80 (data not shown)) was 0.037 % w/w. The “solubility of lemuteporfin” value ([2]; without polysorbate 80 (data not shown)) was 0.027 % w/w.
